# Experimental data taken from patent US20220040166A1, “Methods and Compositions of Treating an Ophthalmic Condition” (KARTOS THERAPEUTICS, priority 2018, published 2022).
# Marks after values point to notes of the source that are not given here.
# Assays:
# [1] = Tolerability of intravitreally administered solution of the compound of Formula (I)
# Protocol: Based on expected solubility, a maximum feasible intravitreal dose of 44 μg of the compound of Formula (I) in 50 uL pH 7.85 aqueous buffer (sterile saline for injection, phosphate buffered saline or HEPES buffered saline) was administered to Dutch Belted rabbits.
# Ophthalmoscopic examinations (slit lamp), ocular scoring, and intraocular pressure were observed through 5 days post-administration.
# [2] = In vitro release of Comp-A from nanoparticles by dialysis against HBS (pH 7) at 37° C.; type: physicochemical; conditions: dialyzed against >1000X volume HBS (pH 7) at 37° C.
# Protocol: • 5. Immediately following formulation, NPs were diluted to 4× volume in HBS. • 6. Pall 30 kDa MWCO centrifugal filters were used for solvent exchange to HBS and to concentrate formulations (2000×g, 21° C.). • 7. Particle size and polydispersity index (PDI) were analyzed using a Malvern Zetasizer (dynamic light scattering; DLS). […] Final formulations were sterile filtered through 0.22 μm syringe filters and stored at −80° C. in MrFrosty freezing containers. The following day formulations were moved to cryogenic freezer boxes for storage prior to shipping. • 9. A sample of each formulation was thawed to room temperature and dialyzed against >1000 volumes of 1×HBS (pH 7) at 37° C. for 6 hours. Samples were collected at 2 mins, 30 mins, 2 hours and 6 hours and analyzed for drug content by UPLC to determine particle release characteristics.
# [3] = system: MDM2-amplified tumor cell line SJSA; experiment: Induction of p21 mRNA by Comp-A in SJSA cells; type: cell-based
# [4] = 44 μg in 50 uL pH 7.85 aqueous buffer, intravitreal, rabbit
structure (smiles),measurement,setting,value
"CC(C)[C@@H](CS(=O)(=O)C(C)C)N1C(=O)[C@@](C)(CC(=O)O)C[C@H](c2cccc(Cl)c2)[C@H]1c1ccc(Cl)cc1 [Comp-A, 2-((3R,5R,6S)-5-(3-chlorophenyl)-6-(4-chlorophenyl)-1-((S)-1-(isopropylsulfonyl)-3-methylbutan-2-yl)-3-methyl-2-oxopiperidin-3-yl) Acetic Acid]",Changes in intra-ocular pressure,[1]; [4],no changes
same,Ophthalmologic observations through 5 days,[1]; [4],no ophthalmologic observations
same,Tolerability,[1]; 22 microgram/eye in PBS (1×) and in HEPES buffered saline,no findings
same,Tolerability,[1]; 44 microgram/eye in PBS (1×) and in HEPES buffered saline,no findings
same,% Release after 2 h dialysis,[2]; 2 h,<1%
same,% Release after 6 h dialysis,[2]; 6 h,0* %
same,EC50,[3],0.0262 µg/mL
